Results from paper PMC6839174, “Targeting the Formyl Peptide Receptor type 1 to prevent the adhesion of ovarian cancer cells onto mesothelium and subsequent invasion” (Journal of Experimental & Clinical Cancer Research : CR, 2019).
Non-standard residues stand in square brackets, D forms with d. No end group written: not given here. *: point of attachment. Nle = CCCC[C@H](N)C(=O)O; For = O=C*

Legend:
[1] = tested on: SKOV-3 cells; assay: Adhesion kinetic of SKOV-3 cells onto Vn monitored in real time (xCELLigence); assay type: cell-based, Human; settings: SKOV-3 pre-exposed to 100 nM peptide, 2 h, cell index, quadruplicate representative of 3 replicates
Experimental: This assay was performed using E-16-well plates and the xCELLigence Real Time Cell Analysis technology. Bottom wells were coated with serum-free medium, 5 μg mL Vn, 5 μg mL Fn, 5 μg mL Lm or 15 μg mL Coll diluted in serum-free medium prior to seeding cells (1 × 10^4 cells/well) suspended in serum-free medium. Cells that adhere to the bottom of plates cause impedance changes which are proportional to the number of cells. The impedance value of each well was automatically monitored in real-time for at least 2 h and expressed as a cell index value. The experiments were performed three times in quadruplicate.

[2] = tested on: FPR1; assay: Agonist-dependent FPR1 internalization in EOC cells (confocal microscopy); assay type: cell-based, human; settings: primary EOC cells, 10 nM fluorescent peptide, 30 min at 37 °C
Experimental: Cells (2 × 10^4/sample) were seeded on glass coverslips and cultured for 24 h in growth medium. Then, slides were washed with PBS, fixed with 2.5% formaldehyde in PBS for 10 min at 4 °C and incubated for 1 h at 4 °C with 2 μg/mL R4 anti-uPAR mAb or 1:100 rabbit anti-FPR1 Ab (#113531Ab, Abcam). Then, 1:700 goat Alexa Fluor 488 anti-rabbit IgG, or rabbit Alexa Fluor 488-conjugated F(ab’)2 fragment of anti-mouse IgG (Molecular Probes) were applied to slides at 23 °C for 40 min. Nuclear staining was performed with 4-6-diamidino-2-phenylindole dye (DAPI). To analyze agonist-dependent FPR1 internalization, cells grown on glass slides were exposed to 10 nM FITC-fMLF or 10 nM FITC-RI-3 diluted in serum-free DMEM for 30 min at 37 °C as described. After extensive washing with PBS, coverslips were mounted using 20% (w/v) mowiol, visualized with the 510 META-LSM confocal microscope (Carl Zeiss).

[3] = tested on: cell migration; settings: FITC-RI-3, compared with non-fluorescent peptide; ref [38]; cited from earlier work
Description: In order to obtain primary cultures of EOC cells, representative fragments of tissue samples were fragmented and cells recovered, as described in the Methods. By enzymatic digestion of a HGSC tissue sample (patient #5), a primary cell culture expressing high levels of both uPAR and FPR1 on cell surface as shown by IHC, was obtained (Figs. 4 and 5a). Subsequent sub-cloning of isolated cell clusters (Fig. 5b) followed by five passages allowed us to obtain an adherent, homogeneous, CD326 positive cell population. These EOC cells express a considerable amount of both uPAR and FPR1 as shown by West ...

[4] = tested on: FPR1; assay: Ligand binding assay with FITC-RI-3 on primary EOC cells; set-up: species or system human; settings: for prevention of FITC-RI-3 binding by unlabeled peptide: primary EOC cells, 100 nM peptide pre-incubated 60 min at 4 °C, then 10 nM FITC-RI-3 60 min at 4 °C, three experiments
Experimental: EOC cells were pre-incubated with diluents or the indicated unlabeled peptides for 60 min at 4 °C (to avoid internalization), extensively rinsed with phosphate buffer saline (PBS), exposed to 10 nM FITC-RI-3 diluted in PBS, for additional 60 min at 4 °C and again rinsed with PBS. Quantification of cell associated fluorescence was assessed by reading cells with the fluorescence plate reader Victor 3. The experiments were performed three times in duplicate.

[5] = tested on: FPR1; settings: 100 nM peptide, 30 min at 37 °C; ref [37], [38]; cited from earlier work
[6] = tested on: SKOV-3 cells; assay: Adhesion of SKOV-3 cells onto extracellular matrix proteins (24-well plates, cell counting); assay type: cell-based, Human; settings: SKOV-3 pre-incubated with 100 nM peptide 30 min at 37 °C, 2 h; for cell adhesion onto Coll, Fn or Lm after desensitization: collagen, fibronectin, laminin; for cell adhesion onto Vn after desensitization: vitronectin, means ± SD of three independent experiments
Experimental: Adhesion assays were performed using 24 multi-well plates coated with 1% BSA, 5 μg mL vitronectin (Vn), 5 μg mL fibronectin (Fn), 5 μg mL laminin (Lm) or 15 μg mL collagen (Coll) diluted in serum-free medium. Sub-confluent cells were harvested by a mild trypsinization, incubated with 10% FBS / DMEM for 1 h at 37 °C, 5% CO2, acid treated with a buffer containing 50 mM glycin-HC1, 0.1 M NaCl, pH 3 for 4 min at 22 °C, to remove receptor-bound ligands, and counted. Viable cells (2 × 10^5 cells per well) were plated in serum-free medium, in the absence or presence of 2 μg/mL R3 mAb recognizing the DI uPAR domain, 2 μg/mL399 anti-uPAR (American Diagnostica), 2 μg/mL anti-uPAR84-95 (PRIMM), 2 μg/mL anti-α-tubulin (Cell Signaling) Abs or 10 nM RI-3, and allowed to adhere for 2 h at 37 °C, 5% CO2. […] At the end of the assay, adherent cells were removed with 0.05% trypsin, and counted. The number of adherent cells was expressed as a percentage of the basal cell adhesion (CTRL). The experiments were performed at least three times in triplicate.

[7] = tested on: EOC cells; assay: EOC cell adhesion to and crossing of mesothelial cell monolayers (summary statement); assay type: cell-based, human; settings: EOC cells exposed to RI-3 or desensitized with an excess of SRSRY
Experimental: HPMCs (1 × 10^5 cells/well) suspended in growth medium, were seeded in 24-well plates and allowed to adhere for about 20 h until they form a confluent monolayer, prior to seeding GFP-tagged EOC cells suspended in growth medium plus diluents or 10 nM RI-3. At the indicated times, plates were accurately washed with PBS and cell-associated fluorescence was assessed by a fluorescence plate reader a fluorescence plate reader (Victor 3, Perkin Elmer), using 485 nm excitation and 535 nm emission filters. The experiments were performed three times in triplicate.
HPMCs (5 × 10^3 cells/well) suspended in growth medium, were seeded in E-16-well plates and allow to adhere for 18–20 h until they form a confluent monolayer, prior to seeding EOC cells (2 × 10^4 cells/well) in growth medium plus/minus 10 nM RI-3. When HPMCs are challenged with invading cells, there is a drop in electrical resistance within 2–4 h which is monitored in real-time as the Cell Index changes due to the rupture of mesothelium. The experiments were performed three times in quadruplicate.

[8] = tested on: cell migration and ECM attachment; settings: independently of the uPA catalytic activity; ref [14], [24]–[26]; cited from earlier work
Description: Ovarian cancer cells detach from the primary tumor and float in the ascitic fluid as single cells or multicellular, chemo-resistant spheroids. Then, floating cancer cells must resist anoikis triggered by lack of attachment to the mesothelium to evade clearance through the peritoneal lymphatics.

[9] = tested on: vitronectin receptor; set-up: method as in PMID 15866865, PMID 20880257; settings: inside-out mechanism involving PKC, AKT and MAPK; ref [26], [28]; cited from earlier work

ARARY [control peptide ARARY]
adhesion onto Vn in real time after desensitization [1]: ineffective

Ac-(D)-Tyr-(D)-Arg-Aib-(D)-Arg-Ahx-Lys (N^ɛ-FITC)-NH2 [FITC-RI-3, fluorescein-conjugate of RI-3]
FPR1 internalization [2]: little or no internalization
FPR1 binding and inhibition of cell migration [3]: binding FPR1 and inhibiting cell migration like the non-fluorescent peptide
binding of FITC-RI-3 to EOC cell surface ([4]; primary EOC cells (patient #5), 10 nM FITC-RI-3 in PBS, 60 min at 4 °C, fluorescence): specific, saturable RI-3 uptake on EOC cell surface

For-[Nle]LF[Nle]YK [FITC-fMLF, fluorescein conjugate hexapeptide Formyl-Nle-Leu-Phe-Nle-Tyr-Lys, reference compound]
FPR1 internalization [2]: caused FPR1 internalization

N-Formyl-L-methionyl-L-leucyl-L-phenylalanine [fMLF]
availability of FPR1 on cell surface after desensitization [5]: unavailability of FPR1 on cell surface
adhesion onto Vn in real time after desensitization [1]: abrogates cell capability to adhere onto Vn
cell adhesion onto Coll, Fn or Lm after desensitization [6]: not onto Coll, Fn or Lm
cell adhesion onto Vn after desensitization [6]: lose the ability to adhere onto Vn
prevention of FITC-RI-3 binding by unlabeled peptide [4]: prevented

Ser-Arg-Ser-Arg-Tyr [SRSRY, synthetic shorter pentapeptide uPAR88–92]
availability of FPR1 on cell surface after desensitization [5]: unavailability of FPR1 on cell surface
ability to cross mesothelial cell monolayers (abstract) [7]: losing the ability to cross them
adhesion onto Vn in real time after desensitization [1]: abrogates cell capability to adhere onto Vn
cell adhesion onto Coll, Fn or Lm after desensitization [6]: not onto Coll, Fn or Lm
cell adhesion onto Vn after desensitization [6]: lose the ability to adhere onto Vn
regulation of cell migration and ECM attachment [8]: potent regulators of cell migration and ECM attachment
FPR1 interaction activating the vitronectin receptor [9]: internalizes and activates the vitronectin receptor
prevention of FITC-RI-3 binding by unlabeled peptide [4]: prevented

uPAR84–95: The domain boundary between DI-DII (uPAR84–95 sequence) (AVTYSRSRYLEC; UniProt Q03405 106-117, looked up, fragment)
regulation of cell migration and ECM attachment [8]: potent regulators of cell migration and ECM attachment
FPR1 interaction activating the vitronectin receptor [9]: internalizes and activates the vitronectin receptor
